The record followed here is patent US11053235B2, “Substituted 1,4-dihydropyrimidines for the treatment of HBV infection or HBV-induced diseases” (Janssen Sciences Ireland Unlimited Company, priority 2018, dated 2021).

One series relates to HBV. The experiment in a line: Anti-viral assay in HepG2.2.15 cells: HBV inhibitory activity (HBV DNA in culture medium by q-PCR). To be noted: Hepatitis B virus, HepG2.2.15, 144 h, HepG2.2.15 cells, 6 days treatment, HBV DNA in culture medium by q-PCR, highest concentration 10 uM; read-out: EC50. The format is cell-based. In a few lines: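 HepG2.2.15 cells seeded at 40,000/well in 2% FBS medium, dosed next day for 6 days (medium refreshed once midway); 8-point 3-fold dilutions from 10 uM top. HBV DNA in culture medium extracted and quantified by q-PCR; EC50 calculated from dose-response.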

Series [1] can be described thus: Cytotoxicity determination in HepG2.2.15 cells (CCK-8). To be noted: human, 6 days treatment, CCK-8, highest concentration 100 uM. The class given is cell-based. In a few lines:
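HepG2.2.15 cells seeded at 5,000 cells/well in 2% FBS medium and exposed to compounds for 6 days (medium refreshed once), 8 three-fold dilutions from 100 uM. Viability read by CCK-8 after 2.5 h at 37 °C, absorbance 450 nm with 630 nm reference; CC50 calculated.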

In general, EC50 refers to the concentration giving half of the maximal effect. As a reminder, the CC50 is the concentration giving 50% cytotoxicity. A high value points to better tolerance by the cells. On to `COC(=O)C1=C(C2CCN(c3ncc(C)c(C(=O)O)n3)CC2)NC(c2nccs2)=NC1c1ccc(F)cc1C` (single isomer, unassigned) [II-7-B, 2-(4-(6-(4-fluoro-2-methylphenyl)-5-(methoxycarbonyl)-2-(thiazol-2-yl)-3,6-dihydropyrimidin-4-yl)piperidin-1-yl)-5-methylpyrimidine-4-carboxylic Acid], for which the EC50 in the series with HBV is 0.041 µM. Also, the CC50 at 6 days in series [1] is 28.4 µM.
Regarding `CCOC(=O)C1=C(C2CCN(c3ncc(C)c(C(=O)O)n3)CC2)NC(c2nccs2)=NC1c1ccc(F)cc1Cl` (single isomer, unassigned) [II-20-B, 2-(4-(6-(2-Chloro-4-fluorophenyl)-5-(ethoxycarbonyl)-2-(thiazol-2-yl)-3,6-dihydropyrimidin-4-yl)piperidin-1-yl)-5-methylpyrimidine-4-carboxylic Acid], the EC50 with HBV was 0.015 µM. In series [1], this molecule gave a CC50 at 6 days of 16.8 µM.
Consider `COC(=O)C1=C([C@H]2CC[C@H](c3ncc(C)c(C(=O)O)n3)CC2)NC(c2nccs2)=NC1c1ccc(F)c(F)c1Br` (single isomer, unassigned) [Compound I-47-D, 2-((Trans)-4-(6-(2-bromo-3,4-difluorophenyl)-5-(methoxycarbonyl)-2-(thiazol-2-yl)-3,6-dihydropyrimidin-4-yl)cyclohexyl)-5-methylpyrimidine-4-carboxylic Acid], for which the EC50 in the series on HBV worked out at 0.0059 µM. The CC50 at 6 days in series [1] was determined as 19.3 µM.
Consider `COC(=O)C1=C(C2CCN(c3ncc(N4CCC(C(=O)O)CC4)cn3)CC2)NC(c2nccs2)=NC1c1ccc(F)cc1Cl` (single isomer, unassigned) [II-90-B, 1-(2-(4-(6-(2-chloro-4-fluorophenyl)-5-(methoxycarbonyl)-2-(thiazol-2-yl)-3,6-dihydropyrimidin-4-yl)piperidin-1-yl)pyrimidin-5-yl)piperidine-4-carboxylic acid], for which the EC50 with HBV was 0.0054 µM. Moreover, in series [1], the CC50 at 6 days came out at 19 µM.
`COC(=O)C1=C(C2CCN(c3ncc(CC(=O)O)cn3)CC2)NC(c2nccs2)=NC1c1ccc(F)cc1Cl` (single isomer, unassigned) [II-15-A, 2-(2-(4-(6-(2-Chloro-4-fluorophenyl)-5-(methoxycarbonyl)-2-(thiazol-2-yl)-3,6-dihydropyrimidin-4-yl)piperidin-1-yl)pyrimidin-5-yl)acetic Acid]: the concentration for a half-maximal effect (EC50) with HBV amounted to 0.0055 µM. For the same molecule, the midpoint of cytotoxicity in series [1], the CC50 at 6 days, lay at 14 µM.
`COC(=O)C1=C(C2CCN(c3ncc(Cl)c(C(=O)O)n3)CC2)NC(c2nccs2)=NC1c1ccc(F)c(F)c1Cl` (single isomer, unassigned) [II-26-B, 5-Chloro-2-(4-(6-(2-chloro-3,4-difluorophenyl)-5-(methoxycarbonyl)-2-(thiazol-2-yl)-3,6-dihydropyrimidin-4-yl)piperidin-1-yl)pyrimidine-4-carboxylic Acid]: the EC50 with HBV was found to be 0.045 µM. Besides, in series [1], half-maximal cytotoxicity (CC50 at 6 days) was put at 11.1 µM.
As for `COC(=O)C1=C(C2CCN(c3ncc(C)c(C(=O)O)n3)CC2)NC(c2nccs2)=NC1c1ccc(Br)cc1Cl` (single isomer, unassigned) [II-81-B, 2-(4-(6-(4-bromo-2-chlorophenyl)-5-(methoxycarbonyl)-2-(thiazol-2-yl)-3,6-dihydropyrimidin-4-yl)piperidin-1-yl)-5-methylpyrimidine-4-carboxylic Acid], the EC50 in the series on HBV is 0.054 µM. This molecule also showed a CC50 at 6 days in series [1] of 12.4 µM.
With `CCOC(=O)C1=C(C2CCN(c3cnc(OC)c(C(=O)O)n3)CC2)NC(c2nccs2)=NC1c1ccc(F)c(F)c1Cl` (single isomer, unassigned) [II-47-B, 6-(4-(6-(2-chloro-3,4-difluorophenyl)-5-(ethoxycarbonyl)-2-(thiazol-2-yl)-3,6-dihydropyrimidin-4-yl)piperidin-1-yl)-3-methoxypyrazine-2-carboxylic Acid], the EC50 with HBV came out at 0.025 µM. In series [1], this molecule returned a CC50 at 6 days of 11.1 µM.
As for `COC(=O)C1=C(C2CCN(c3ncc(C)c(C(=O)O)n3)CC2)NC(c2nccs2)=NC1c1ccc(F)cc1Cl` (single isomer, unassigned) [II-14-A, 2-(4-(6-(2-Chloro-4-fluorophenyl)-5-(methoxycarbonyl)-2-(thiazol-2-yl)-3,6-dihydropyrimidin-4-yl)piperidin-1-yl)-5-methylpyrimidine-4-carboxylic Acid], the EC50 in the series with HBV was determined as 0.0081 µM. Also, in series [1], half-maximal cytotoxicity (CC50 at 6 days) was put at 32.1 µM.
On to `CCOC(=O)C1=C([C@H]2CC[C@H](c3nc(C(=O)O)co3)CC2)NC(c2nccs2)=NC1c1cccc(F)c1Cl` (single isomer, unassigned) [Compound I-9-B, (trans)-2-(4-(6-(2-chloro-3-fluorophenyl)-5-(ethoxycarbonyl)-2-(thiazol-2-yl)-3,6-dihydropyrimidin-4-yl)cyclohexyl)oxazole-4-carboxylic Acid], for which, in the series on HBV, the EC50 came out at 0.025 µM. The molecule also had a CC50 at 6 days in series [1] of 12.3 µM.
Take `CCOC(=O)C1=C(C2CCN(c3ncc(C(=O)O)cn3)C(C)C2)NC(c2nccs2)=NC1c1ccc(F)c(F)c1Cl` (stereo not drawn) [II-34-F, 2-(4-(6-(2-chloro-3,4-difluorophenyl)-5-(ethoxycarbonyl)-2-(thiazol-2-yl)-3,6-dihydropyrimidin-4-yl)-2-methylpiperidin-1-yl)pyrimidine-5-carboxylic acid]: in the series with HBV, the EC50 was below 0.0046 µM. Further, half-maximal cytotoxicity in series [1] (CC50 at 6 days) was put at 7.96 µM.
Regarding `COC(=O)C1=C(C2CCN(c3ncc(CC(=O)O)cn3)CC2)NC(c2nccs2)=NC1c1cccc(F)c1Cl` (single isomer, unassigned) [II-9-B, 2-(2-(4-(6-(2-Chloro-3-fluorophenyl)-5-(methoxycarbonyl)-2-(thiazol-2-yl)-3,6-dihydropyrimidin-4-yl)piperidin-1-yl)pyrimidin-5-yl)acetic Acid], the EC50 in the series on HBV is below 0.0046 µM. The CC50 at 6 days in series [1] worked out at 4.9 µM.
Regarding `CCOC(=O)C1=C(C2CCN(c3ncc(CC(=O)O)cn3)CC2)NC(c2nccs2)=NC1c1ccc(F)cc1Cl` (single isomer, unassigned) [II-21-B, 2-(2-(4-(6-(2-Chloro-4-fluorophenyl)-5-(ethoxycarbonyl)-2-(thiazol-2-yl)-3,6-dihydropyrimidin-4-yl)piperidin-1-yl)pyrimidin-5-yl)acetic Acid], the EC50 in the series with HBV was 0.0062 µM. For the same molecule, in series [1], the CC50 at 6 days came out at 7.11 µM.
Consider `CCOC(=O)C1=C(C2CCN(c3ncc(CCC(=O)O)cn3)CC2)NC(c2nccs2)=NC1c1ccc(F)c(F)c1Cl` (single isomer, unassigned) [II-66-B, 3-(2-(4-(6-(2-Chloro-3,4-difluorophenyl)-5-(ethoxycarbonyl)-2-(thiazol-2-yl)-3,6-dihydropyrimidin-4-yl)piperidin-1-yl)pyrimidin-5-yl)propanoic Acid], for which the EC50 with HBV came out at 0.0072 µM. Also, the CC50 at 6 days in series [1] is 10.9 µM.
With `CCOC(=O)C1=C(C2CCN(c3nncs3)CC2)NC(c2nccs2)=NC1c1ccc(F)c(F)c1Cl` (single isomer, unassigned) [II-75-X, Ethyl 6-(1-(1,3,4-thiadiazol-2-yl)piperidin-4-yl)-4-(2-chloro-3,4-difluorophenyl)-2-(thiazol-2-yl)-1,4-dihydropyrimidine-5-carboxylate], in the series on HBV, the EC50 is 0.03 µM. This molecule showed a CC50 at 6 days in series [1] of 9.81 µM.
